In US11629192B2, “Methods and pharmaceutical compositions for the treatment of diseases mediated by the NRP-1/OBR complex signaling pathway” (INSERM (Institut National de la Sante et de la Recherche …, priority 2014, dated 2023):

Molecular target: T1, OBR (Homo sapiens, UniProt P48357)
T1 sequence (P48357 22-1165): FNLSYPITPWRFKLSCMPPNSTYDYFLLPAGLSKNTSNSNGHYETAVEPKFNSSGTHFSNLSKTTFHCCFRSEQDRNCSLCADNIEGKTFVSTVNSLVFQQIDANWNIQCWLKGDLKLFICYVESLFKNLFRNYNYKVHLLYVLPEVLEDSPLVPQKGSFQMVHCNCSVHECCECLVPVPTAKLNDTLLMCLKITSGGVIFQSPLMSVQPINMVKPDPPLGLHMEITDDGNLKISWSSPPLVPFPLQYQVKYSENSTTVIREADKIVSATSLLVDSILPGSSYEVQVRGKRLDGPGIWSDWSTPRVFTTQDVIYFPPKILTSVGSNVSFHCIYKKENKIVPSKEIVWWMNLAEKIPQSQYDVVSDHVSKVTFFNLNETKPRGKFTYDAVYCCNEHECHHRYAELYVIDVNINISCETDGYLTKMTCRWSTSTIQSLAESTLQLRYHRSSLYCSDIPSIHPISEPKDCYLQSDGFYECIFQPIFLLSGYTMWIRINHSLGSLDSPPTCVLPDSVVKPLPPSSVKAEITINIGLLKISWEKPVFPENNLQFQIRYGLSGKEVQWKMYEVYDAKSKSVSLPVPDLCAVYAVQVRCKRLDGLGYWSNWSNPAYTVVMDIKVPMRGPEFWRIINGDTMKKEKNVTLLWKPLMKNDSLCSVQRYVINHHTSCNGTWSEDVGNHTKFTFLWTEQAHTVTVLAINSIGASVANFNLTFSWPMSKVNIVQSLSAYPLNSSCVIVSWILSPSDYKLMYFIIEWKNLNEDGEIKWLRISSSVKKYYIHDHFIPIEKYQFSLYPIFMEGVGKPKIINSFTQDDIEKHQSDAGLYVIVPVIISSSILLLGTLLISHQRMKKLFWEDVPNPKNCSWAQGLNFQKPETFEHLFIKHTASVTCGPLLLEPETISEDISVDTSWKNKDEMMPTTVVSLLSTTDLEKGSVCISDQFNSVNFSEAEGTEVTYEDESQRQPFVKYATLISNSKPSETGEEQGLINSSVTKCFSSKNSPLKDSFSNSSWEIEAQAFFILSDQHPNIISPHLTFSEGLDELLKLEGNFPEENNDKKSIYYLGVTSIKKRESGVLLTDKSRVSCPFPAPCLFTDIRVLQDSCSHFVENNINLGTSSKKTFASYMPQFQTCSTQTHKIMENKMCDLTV
Experiment: Bio-Layer Interferometry (BLI) binding to OBR
Description: FIG. 5. NRP-1, OBR and leptin interactions confirmation using a Bio-Layer Interferometry (BLI) technology (fortebio.com/bli-technology.html): A-Leptin (OB) interaction to OBR is used as a positive control. Human neuropilin-1 (hNRP-1) interact with human OBR with a high affinity and specifically with human leptin (hOB) but not with murine leptin (mOB). VEGF165 binding to hNRP-1 is used as a positive control. B-Leptin and Avastin association increases MDA-MB231 cells transmigration through […] pore Insert. Avastin treatment may prevent a negative feedback control by VEGF of the pro-angiogenic signaling pathway of Leptin. VEGF binds to OBR which confirms our hypothesis that should be more investigated.

binding to OBR: binds
Substance: VEGF
